# Patent US20260355197A1, “METHOD FOR TREATING ATOPIC DERMATITIS” (BEIJING INNOCARE PHARMA TECH CO., LTD., priority 2023, published 2026)
# Legend:
# [1] = tested on: patients with moderate to severe atopic dermatitis; assay: EASI-75 (difference from placebo) of ICP-332 versus other drugs for treating AD as monotherapy, not head-to-head; format: in vivo, human; conditions: ICP-332 4 weeks, other drugs 12 or 16 weeks, approved recommended doses, phase III published literature
# From the text: The treatment period for ICP-332 was 4 weeks, while it was 12 or 16 weeks for other drugs with their approved recommended doses from phase III studies. The data of other drugs are based on available published literature.
# This is a randomized, double-blind, placebo-controlled, phase 2 study to evaluate the safety, efficacy, pharmacokinetics, and pharmacodynamics of ICP-332 (Compound A) in patients with moderate to severe atopic dermatitis.
# A total of 75 subjects with 25 subjects in each group are enrolled. • (1) ICP-332 80 mg, QD for 28 days (40 mg*2 tablets+Placebo*1 tablet) • (2) ICP-332 120 mg. QD for 28 days (40 mg*3 tablets) • (3) Placebo. QD for 28 days (Placebo*3 tablets)
# [2] = tested on: patients with moderate to severe atopic dermatitis; assay: Phase 2 randomized, double-blind, placebo-controlled clinical study of ICP-332 in atopic dermatitis patients; format: in vivo, human; conditions: Week 4
smiles,measurement,setting,value
Cn1cc(Nc2ncc(Cl)c(N3C[C@@H]4CN(C(=O)CC#N)C[C@]4(C)C3)n2)cn1 [ICP-332],EASI-75 (difference from placebo) versus other drugs,[1],best EASI-75 value over placebo
same,"EASI 50, EASI 75, EASI 90, IGA 0/1",[2]; 80 mg qd oral,significant improvements
same,percent change from baseline in EASI total score,[2]; 80 mg qd oral,significantly reduced the EASI total score (p<0.0001)
same,"EASI 50, EASI 75, EASI 90, IGA 0/1",[2]; 120 mg qd oral,significant improvements
same,percent change from baseline in EASI total score,[2]; 120 mg qd oral,significantly reduced the EASI total score (p<0.0001)
